Test results as given in patent US10952433B2, “Solutions for enhancing the effectiveness of insecticides and fungicides on living plants and related methods” (priority 2015, dated 2021).
Where two headings read alike, the source gives them in different places.

Columns and labels:
[1] = system: lepidopteran larvae: cabbage loopers (Trichoplusia ni) and beet armyworms (Spodoptera exigua); assay type: in vivo; details: leaf discs
Text: A second series of tests involved romaine lettuce discs approximately ⅝ inch in diameter. (L. sativa). They were dipped in the treatment solution one second per disc. This test involved the 5/5 configuration, i.e., 5 treated and 5 untreated. The infestation involved […] lepidopteran larvae at the 3rd to 4th instar development per container: four cabbage loopers (Trichoplusia ni), and four beet armyworms (Spodoptera exigua) were employed. The test containers were placed in a dark humidity cabinet at 15° C. and 80% relative humidity. Visual evaluations of the average percent damage were taken at 24, 48 and 72 hours after the initiation of infestation. Damage was evaluated in 5% increments based on total disc area.
In the tests reported in Table 8 pages 29-32), romaine lettuce leaf discs ⅝″ in diameter (L. sativa) were dipped in the treatment solution for about one second per disc. Infestation was provided by eight lepidopteran larvae at the 3rd to 4th instar development per container. Four cabbage loopers (Trichoplusia ni) and four beet armyworms (Spodoptera exigua) were employed in infestation. The containers were placed in a dark humidity cabinet at 15° C. and 80% relative humidity. Visual observations of the average percent damage was taken at 24, 48 and 72 hours after infestation. Damage evaluation was by 5% increments over the total disc area.
In the tests results provided in Table 8, the identity and concentrations of the insecticide was identical to the tests results reported in Table 7. The concentration of 200:1 was employed for the no amino oxide, no buffer and buffered amine oxide system. This series of tests, however, reported how the percent damage changed with time at the respective 24, 48 and 72 hour intervals.

[2] = system: lepidopteran larvae: cabbage loopers (Trichoplusia ni) and beet armyworms (Spodoptera exigua); assay type: in vivo; details: plants
Description: In a first group of tests, the results of which are shown in Table 7 (pages 22-24), romaine lettuce plants two to three inches in height were exposed to 10 milliliters of solution applied to each plant using a low volume trigger spray. With respect to containers 0-7, ten plants were employed per container, nine were treated and one was an internal control. In containers M-H, ten plants per container were used, five were treated and 5 were internal controls. Each container was infested with 30 lepidopteran larvae between the 5th and 6th instar development. Fifteen cabbage loopers (Trichoplusia ni) and 15 beet armyworms (Spodoptera exigua) were used to infest the romaine lettuce plants. Visual evaluations for the average percentage total surface area damage were taken 24 hours after infestation. Percentage damage was evaluated by 5% increments for total damage across all plant leaves.
As indicated in the first column of Table 7, in some tests, no insecticide was employed and there were two controls; a no water control and a no dye control. A wide variety of insecticides selected from the following group were tested: Chlorantranilopril, Acephate, Methoxyfenozide, Spinosad, Permethrin, and Indoxacarb. The product concentration is shown in PPM in column 2. Column 3 is divided into two subunits, the first being CO3 and the second, PO4. In all instances in columns 3, 4 and 5 and their sub-columns, the concentrations used were 200:1. The fourth column employed amine oxide, but no buffer. […] Two sub-columns each are represented for CO3 and PO4. The final column is a reading of the Percent Lepidopteran Damage to the romaine lettuce plants after 24 hours.
In addition to testing the buffered amine system of the present invention with the two amine oxides identified as CO3 and PO4 and their use with 12 carbon length and a mixture of 12 and 18 designated 1218 for comparative data purposes various differences were created in the testing. Some of the tests were performed with (a) no insecticide along with (b) no amine oxide for CO3 and PO4 and (c) with no buffer, but with amine oxide. Also, tests were run using no insecticide and no water control with no foliar application being made. Tests with no insecticide and no dye control employed foliar application of water only. The tests were conducted with all of the testing on the buffer alone, the amine oxide alone and the buffered amine oxide system of the present invention in the concentration of 200:1.

[3] = insecticide + CO3 buffer 200:1, no amine oxide, PPM: Chlorantranilopril 60, Acephate 70, Methoxyfenozide 100, Spinosad 30, Permethrin 10, Indoxacarb 50
[4] = insecticide + PO4 buffer 200:1, no amine oxide, PPM: Chlorantranilopril 60, Acephate 70, Methoxyfenozide 100, Spinosad 30, Permethrin 10, Indoxacarb 50
[5] = insecticide + amine oxide 12, no buffer, 200:1, PPM: Chlorantranilopril 60, Acephate 70, Methoxyfenozide 100, Spinosad 30, Permethrin 10, Indoxacarb 50
[6] = insecticide + amine oxide 1218, no buffer, 200:1, PPM: Chlorantranilopril 60, Acephate 70, Methoxyfenozide 100, Spinosad 30, Permethrin 10, Indoxacarb 50
[7] = insecticide + buffered amine oxide system CO3, 12, 200:1, PPM: Chlorantranilopril 60, Acephate 70, Methoxyfenozide 100, Spinosad 30, Permethrin 10, Indoxacarb 50
[8] = insecticide + buffered amine oxide system CO3, 1218, 200:1, PPM: Chlorantranilopril 60, Acephate 70, Methoxyfenozide 100, Spinosad 30, Permethrin 10, Indoxacarb 50
[9] = insecticide + buffered amine oxide system PO4, 12, 200:1, PPM: Chlorantranilopril 60, Acephate 70, Methoxyfenozide 100, Spinosad 30, Permethrin 10, Indoxacarb 50
[10] = insecticide + buffered amine oxide system PO4, 1218, 200:1, PPM: Chlorantranilopril 60, Acephate 70, Methoxyfenozide 100, Spinosad 30, Permethrin 10, Indoxacarb 50
[11] = insecticide alone, highest, PPM: Chlorantranilopril 120, Acephate 140, Methoxyfenozide 200, Spinosad 60, Permethrin 20, Indoxacarb 100
[12] = insecticide alone, increased, PPM: Chlorantranilopril 90, Acephate 105, Methoxyfenozide 150, Spinosad 45, Permethrin 15, Indoxacarb 75
[13] = insecticide alone, PPM: Chlorantranilopril 60, Acephate 70, Methoxyfenozide 100, Spinosad 30, Permethrin 10, Indoxacarb 50

## COC(=O)N(C(=O)N1CO[C@@]2(C(=O)OC)Cc3cc(Cl)ccc3C2=N1)c1ccc(OC(F)(F)F)cc1 [Indoxacarb]
[1]; [3]
  Percent Lepidopteran Damage to Romaine Lettuce 24 hr: 21.5%
  Percent Lepidopteran Damage to Romaine Lettuce 48 hr: 29.0%
  Percent Lepidopteran Damage to Romaine Lettuce 72 hr: 37.5%
[1]; [4]
  Percent Lepidopteran Damage to Romaine Lettuce 24 hr: 22.5%
  Percent Lepidopteran Damage to Romaine Lettuce 48 hr: 25.0%
  Percent Lepidopteran Damage to Romaine Lettuce 72 hr: 32.5%
[1]; [5]
  Percent Lepidopteran Damage to Romaine Lettuce 24 hr: 45.5%
  Percent Lepidopteran Damage to Romaine Lettuce 48 hr: 55.0%
  Percent Lepidopteran Damage to Romaine Lettuce 72 hr: 61.5%
[1]; [6]
  Percent Lepidopteran Damage to Romaine Lettuce 24 hr: 44.5%
  Percent Lepidopteran Damage to Romaine Lettuce 48 hr: 68.0%
  Percent Lepidopteran Damage to Romaine Lettuce 72 hr: 71.0%
[1]; [7]
  Percent Lepidopteran Damage to Romaine Lettuce 24 hr: 33.5%
  Percent Lepidopteran Damage to Romaine Lettuce 48 hr: 46.5%
  Percent Lepidopteran Damage to Romaine Lettuce 72 hr: 57.5%
[1]; [8]
  Percent Lepidopteran Damage to Romaine Lettuce 24 hr: 26.5%
  Percent Lepidopteran Damage to Romaine Lettuce 48 hr: 50.5%
  Percent Lepidopteran Damage to Romaine Lettuce 72 hr: 57.0%
[1]; [9]
  Percent Lepidopteran Damage to Romaine Lettuce 24 hr: 61.0%
  Percent Lepidopteran Damage to Romaine Lettuce 48 hr: 63.5%
  Percent Lepidopteran Damage to Romaine Lettuce 72 hr: 71.0%
[1]; [10]
  Percent Lepidopteran Damage to Romaine Lettuce 24 hr: 19.0%
  Percent Lepidopteran Damage to Romaine Lettuce 48 hr: 34.5%
  Percent Lepidopteran Damage to Romaine Lettuce 72 hr: 34.5%
[1]; [11]
  Percent Lepidopteran Damage to Romaine Lettuce 24 hr: 25.0%
  Percent Lepidopteran Damage to Romaine Lettuce 48 hr: 35.5%
  Percent Lepidopteran Damage to Romaine Lettuce 72 hr: 39.5%
[1]; [12]
  Percent Lepidopteran Damage to Romaine Lettuce 24 hr: 32.0%
  Percent Lepidopteran Damage to Romaine Lettuce 48 hr: 38.0%
  Percent Lepidopteran Damage to Romaine Lettuce 72 hr: 72.0%
[1]; [13]
  Percent Lepidopteran Damage to Romaine Lettuce 24 hr: 19.5%
  Percent Lepidopteran Damage to Romaine Lettuce 48 hr: 68.5%
  Percent Lepidopteran Damage to Romaine Lettuce 72 hr: 88.0%
[2]; [3]
  Percent Lepidopteran Damage to Romaine Lettuce 24 hr: 50.5%
[2]; [4]
  Percent Lepidopteran Damage to Romaine Lettuce 24 hr: 25.5%
[2]; [5]
  Percent Lepidopteran Damage to Romaine Lettuce 24 hr: 26.5%
[2]; [6]
  Percent Lepidopteran Damage to Romaine Lettuce 24 hr: 25.5%
[2]; [7]
  Percent Lepidopteran Damage to Romaine Lettuce 24 hr: 7.0%
[2]; [8]
  Percent Lepidopteran Damage to Romaine Lettuce 24 hr: 7.0%
[2]; [9]
  Percent Lepidopteran Damage to Romaine Lettuce 24 hr: 7.5%
[2]; [10]
  Percent Lepidopteran Damage to Romaine Lettuce 24 hr: 8.0%
[2]; [11]
  Percent Lepidopteran Damage to Romaine Lettuce 24 hr: 12.0%
[2]; insecticide alone, highest, PPM: Chlorantranilopril 120, Acephate 140, Methoxyfenozide 200, Spinosad 60, Permethrin 20, Indoxacarb 100, listed as lndoxacarb
  Percent Lepidopteran Damage to Romaine Lettuce 24 hr: 12.5%
[2]; [12]
  Percent Lepidopteran Damage to Romaine Lettuce 24 hr: 20.0%
[2]; [13]
  Percent Lepidopteran Damage to Romaine Lettuce 24 hr: 47.0%
